# pIC50: −log10 of the molar value.
# Key:
# [1] = biological target: T1, Sodium channel protein type 2 subunit alpha (Homo sapiens, UniProt Q99250); assay: Inhibition of human Nav1.2 expressed in HEK293 cells assessed as test to control ratio at 0.1 uM measured after 5 mins by whole cell voltage clamp electrophysiological analysis; type: cell-based
# Target sequence in this assay (Q99250 whole entry, looked up): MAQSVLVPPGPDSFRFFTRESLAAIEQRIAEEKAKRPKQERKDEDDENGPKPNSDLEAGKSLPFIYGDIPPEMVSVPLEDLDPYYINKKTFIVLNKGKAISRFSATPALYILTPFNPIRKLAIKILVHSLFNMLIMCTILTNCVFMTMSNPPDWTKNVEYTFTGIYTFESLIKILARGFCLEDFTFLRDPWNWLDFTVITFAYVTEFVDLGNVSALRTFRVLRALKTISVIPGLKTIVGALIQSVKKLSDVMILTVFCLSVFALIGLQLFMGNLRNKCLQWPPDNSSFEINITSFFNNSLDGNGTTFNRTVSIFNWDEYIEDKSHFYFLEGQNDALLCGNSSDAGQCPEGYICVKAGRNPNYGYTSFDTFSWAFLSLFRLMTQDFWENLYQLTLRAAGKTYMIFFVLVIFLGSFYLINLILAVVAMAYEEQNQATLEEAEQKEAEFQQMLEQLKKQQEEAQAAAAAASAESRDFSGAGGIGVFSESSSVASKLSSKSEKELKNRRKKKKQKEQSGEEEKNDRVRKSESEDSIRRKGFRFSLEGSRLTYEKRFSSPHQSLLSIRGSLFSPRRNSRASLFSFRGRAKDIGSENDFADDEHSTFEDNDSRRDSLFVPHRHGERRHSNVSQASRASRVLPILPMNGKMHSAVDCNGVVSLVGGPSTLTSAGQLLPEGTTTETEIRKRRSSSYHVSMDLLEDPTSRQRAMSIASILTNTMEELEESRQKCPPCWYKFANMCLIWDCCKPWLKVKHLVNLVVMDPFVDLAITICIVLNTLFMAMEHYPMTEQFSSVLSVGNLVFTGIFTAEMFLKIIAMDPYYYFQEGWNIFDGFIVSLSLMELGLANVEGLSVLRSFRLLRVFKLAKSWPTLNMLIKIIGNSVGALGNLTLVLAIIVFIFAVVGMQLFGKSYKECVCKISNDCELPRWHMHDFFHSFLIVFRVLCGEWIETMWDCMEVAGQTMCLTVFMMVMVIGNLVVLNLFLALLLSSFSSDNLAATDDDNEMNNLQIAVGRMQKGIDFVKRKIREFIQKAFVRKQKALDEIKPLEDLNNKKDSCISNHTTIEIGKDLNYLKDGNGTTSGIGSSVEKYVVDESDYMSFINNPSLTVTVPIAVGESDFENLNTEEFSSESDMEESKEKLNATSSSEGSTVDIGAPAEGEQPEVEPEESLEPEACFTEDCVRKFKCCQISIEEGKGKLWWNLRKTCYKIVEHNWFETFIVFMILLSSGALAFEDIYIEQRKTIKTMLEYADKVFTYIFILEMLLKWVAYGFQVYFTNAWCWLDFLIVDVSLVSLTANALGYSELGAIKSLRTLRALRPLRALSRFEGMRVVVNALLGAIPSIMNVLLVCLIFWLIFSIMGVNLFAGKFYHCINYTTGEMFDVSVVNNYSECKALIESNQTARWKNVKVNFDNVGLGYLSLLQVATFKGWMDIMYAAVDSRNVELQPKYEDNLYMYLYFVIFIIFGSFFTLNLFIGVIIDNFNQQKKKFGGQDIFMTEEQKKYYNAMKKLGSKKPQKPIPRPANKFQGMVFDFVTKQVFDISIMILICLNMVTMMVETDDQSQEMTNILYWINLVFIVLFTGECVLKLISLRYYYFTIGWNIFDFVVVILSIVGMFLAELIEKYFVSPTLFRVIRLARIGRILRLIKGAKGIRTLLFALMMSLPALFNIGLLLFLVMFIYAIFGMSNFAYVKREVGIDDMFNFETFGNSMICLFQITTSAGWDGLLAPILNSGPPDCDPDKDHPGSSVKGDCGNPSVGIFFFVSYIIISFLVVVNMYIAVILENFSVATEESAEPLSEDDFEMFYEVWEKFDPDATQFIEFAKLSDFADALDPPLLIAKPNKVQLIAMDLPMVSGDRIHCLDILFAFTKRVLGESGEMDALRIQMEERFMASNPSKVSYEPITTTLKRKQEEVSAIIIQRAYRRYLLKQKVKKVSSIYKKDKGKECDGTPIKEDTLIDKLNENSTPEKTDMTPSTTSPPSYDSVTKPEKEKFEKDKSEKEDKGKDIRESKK
# [2] = biological target: T1, Sodium channel protein type 2 subunit alpha; assay: Inhibition of human Nav1.2 expressed in HEK293 cells assessed as test to control ratio at 1 uM measured after 5 mins by whole cell voltage clamp electrophysiological analysis; type: cell-based
# Target sequence in this assay (Q99250 whole entry, looked up): as above
# [3] = biological target: T1, Sodium channel protein type 2 subunit alpha; assay: Inhibition of human Nav1.2 expressed in HEK293 cells at 10 uM measured after 5 mins by whole cell voltage clamp electrophysiological analysis relative to control; type: cell-based
# Target sequence in this assay (Q99250 whole entry, looked up): as above
# [4] = biological target: T1, Sodium channel protein type 2 subunit alpha; assay: Inhibition of human Nav1.2 expressed in HEK293 cells assessed as test to control ratio at 10 uM measured after 5 mins by whole cell voltage clamp electrophysiological analysis; type: cell-based
# Target sequence in this assay (Q99250 whole entry, looked up): as above
# [5] = biological target: T1, Sodium channel protein type 2 subunit alpha; assay: Inhibition of Nav1.2 (unknown origin)
# Target sequence in this assay (Q99250 whole entry): as the sequence (Q99250 whole entry, looked up) above
# [6] = biological target: T1, Sodium channel protein type 2 subunit alpha; assay: Inhibition of human Nav1.2 expressed in HEK293 cells at -120 mv holding potential measured after 5 mins by whole cell voltage clamp electrophysiological analysis; type: cell-based
# Target sequence in this assay (Q99250 whole entry): as the sequence (Q99250 whole entry, looked up) above
# [7] = test system: Mus musculus; assay: Antiepileptic activity in MES-induced seizure male ICR mouse model assessed as protection against tonic hind limb extension at 30 mg/kg, ip measured after 30 mins relative to control; type: functional; conditions: 0.5 h
# [8] = test system: Mus musculus; assay: Antiepileptic activity in 6 Hz(32 mA)-induced seizure male C57BL mouse model assessed as protection against seizure at 50 mg/kg, ip administered for 30 mins by epilepsy test; type: functional; conditions: 0.5 h
# [9] = biological target: T1, Sodium channel protein type 2 subunit alpha; assay: Inhibition of human Nav1.2 expressed in HEK293 cells at -40 mv holding potential measured after 5 mins by whole cell voltage clamp electrophysiological analysis; type: cell-based
# Target sequence in this assay (Q99250 whole entry): as the sequence (Q99250 whole entry, looked up) above
# [10] = biological target: T1, Sodium channel protein type 2 subunit alpha; assay: Inhibition of human Nav1.2 expressed in HEK293 cells assessed as effect on steady state inactivation by measuring half activation potential at 20 uM (reference value: -59 mV); type: cell-based
# Target sequence in this assay (Q99250 whole entry, looked up): as above
# [11] = test system: Mus musculus; assay: Antiepileptic activity in MES-induced seizure male ICR mouse model assessed as protection against tonic hind limb extension at 10 mg/kg, ip measured after 30 mins relative to control; type: functional; conditions: 0.5 h
# [12] = biological target: Sodium channel protein type 1 subunit alpha (Homo sapiens) (UniProt P35498); assay: Inhibition of human Nav1.1 expressed in HEK293 cells assessed as test to control ratio at 0.1 uM by whole cell voltage clamp electrophysiological analysis; type: cell-based
# [13] = Neurotoxicity in male ICR mouse assessed as motor impairment at 250 mg/kg, ip administered for 30 mins by rotarod test relative to control; type: toxicity, organism-based; conditions: in vivo, 0.5 h
# [14] = test system: Mus musculus; assay: Antiepileptic activity in MES-induced seizure male ICR mouse model assessed as protection against tonic hind limb extension administered intraperitoneally for 30 mins; type: functional; conditions: 0.5 h, route ip
# [15] = Neurotoxicity in male ICR mouse administered intraperitoneally for 30 mins; type: toxicity; conditions: in vivo, route ip
# [16] = biological target: Sodium channel protein type 1 subunit alpha (Homo sapiens) (UniProt P35498); assay: Inhibition of human Nav1.1 expressed in HEK293 cells assessed as test to control ratio at 1 uM by whole cell voltage clamp electrophysiological analysis; type: cell-based
# [17] = biological target: Sodium channel protein type 8 subunit alpha (Homo sapiens) (UniProt Q9UQD0); assay: Inhibition of human Nav1.6 expressed in CHO cells assessed as test to control ratio at 1 uM by whole cell voltage clamp electrophysiological analysis; type: cell-based
# Chain of Sodium channel protein type 8 subunit alpha (Homo sapiens) (Q9UQD0 whole entry, looked up): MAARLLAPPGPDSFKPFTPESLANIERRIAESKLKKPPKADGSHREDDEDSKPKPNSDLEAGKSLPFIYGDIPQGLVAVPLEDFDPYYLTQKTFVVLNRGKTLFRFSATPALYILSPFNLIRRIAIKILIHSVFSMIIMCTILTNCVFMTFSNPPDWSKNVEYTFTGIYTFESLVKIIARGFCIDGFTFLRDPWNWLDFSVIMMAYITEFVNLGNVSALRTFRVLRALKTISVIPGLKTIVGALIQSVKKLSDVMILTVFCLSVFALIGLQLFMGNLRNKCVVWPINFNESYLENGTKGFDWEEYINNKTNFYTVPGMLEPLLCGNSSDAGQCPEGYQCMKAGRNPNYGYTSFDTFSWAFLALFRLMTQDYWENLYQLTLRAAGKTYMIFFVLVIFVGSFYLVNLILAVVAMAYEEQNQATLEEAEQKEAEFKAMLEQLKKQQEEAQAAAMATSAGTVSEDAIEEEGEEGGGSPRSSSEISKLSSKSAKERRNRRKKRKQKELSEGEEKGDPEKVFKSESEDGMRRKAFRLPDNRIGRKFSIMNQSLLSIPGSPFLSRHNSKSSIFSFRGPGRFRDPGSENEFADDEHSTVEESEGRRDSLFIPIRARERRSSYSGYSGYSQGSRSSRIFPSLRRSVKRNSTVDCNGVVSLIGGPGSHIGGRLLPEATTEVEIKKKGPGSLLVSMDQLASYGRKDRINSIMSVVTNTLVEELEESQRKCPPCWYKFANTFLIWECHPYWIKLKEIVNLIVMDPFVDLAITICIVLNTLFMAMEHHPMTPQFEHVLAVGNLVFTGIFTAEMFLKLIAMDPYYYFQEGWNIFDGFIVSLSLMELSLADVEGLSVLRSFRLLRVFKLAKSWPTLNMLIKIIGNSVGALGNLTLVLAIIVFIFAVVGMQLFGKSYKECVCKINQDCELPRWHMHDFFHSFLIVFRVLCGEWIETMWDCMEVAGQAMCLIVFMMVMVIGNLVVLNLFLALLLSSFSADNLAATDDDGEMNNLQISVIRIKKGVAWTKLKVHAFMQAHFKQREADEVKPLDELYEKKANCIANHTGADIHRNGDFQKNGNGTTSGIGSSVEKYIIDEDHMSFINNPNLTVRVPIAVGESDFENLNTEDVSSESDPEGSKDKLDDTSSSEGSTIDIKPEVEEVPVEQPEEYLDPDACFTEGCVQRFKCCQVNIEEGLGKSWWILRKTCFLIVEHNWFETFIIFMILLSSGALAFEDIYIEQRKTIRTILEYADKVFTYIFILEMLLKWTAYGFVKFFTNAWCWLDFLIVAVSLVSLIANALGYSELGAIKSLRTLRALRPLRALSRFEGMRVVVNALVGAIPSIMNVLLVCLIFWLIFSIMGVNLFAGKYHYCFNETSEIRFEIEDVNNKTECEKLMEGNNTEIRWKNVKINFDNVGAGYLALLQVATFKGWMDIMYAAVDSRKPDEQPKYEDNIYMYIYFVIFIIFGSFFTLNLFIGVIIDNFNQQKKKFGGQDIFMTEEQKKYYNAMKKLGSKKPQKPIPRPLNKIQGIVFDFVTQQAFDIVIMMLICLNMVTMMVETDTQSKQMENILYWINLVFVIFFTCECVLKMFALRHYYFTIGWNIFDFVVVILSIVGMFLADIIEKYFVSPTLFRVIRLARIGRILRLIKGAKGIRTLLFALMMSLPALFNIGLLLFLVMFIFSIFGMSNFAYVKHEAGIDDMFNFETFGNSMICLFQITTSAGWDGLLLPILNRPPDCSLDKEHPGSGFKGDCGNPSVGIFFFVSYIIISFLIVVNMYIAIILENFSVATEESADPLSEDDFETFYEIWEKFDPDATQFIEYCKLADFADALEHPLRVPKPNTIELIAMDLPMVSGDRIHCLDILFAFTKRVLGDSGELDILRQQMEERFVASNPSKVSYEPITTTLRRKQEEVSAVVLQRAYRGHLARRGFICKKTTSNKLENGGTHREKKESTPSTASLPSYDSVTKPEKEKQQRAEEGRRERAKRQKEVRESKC
# [18] = test system: Mus musculus; assay: Antiepileptic activity in 6 Hz(32 mA)-induced seizure male C57BL mouse model assessed as protection against seizure at 30 mg/kg, ip administered for 30 mins by epilepsy test; type: functional; conditions: 0.5 h
# [19] = Neurotoxicity in male ICR mouse assessed as motor impairment at 150 mg/kg, ip administered for 30 mins by rotarod test relative to control; type: toxicity, organism-based; conditions: in vivo, 0.5 h
# [20] = biological target: T2, Sodium channel protein type 5 subunit alpha (Homo sapiens, UniProt Q14524); assay: Inhibition of human Nav1.5 expressed in CHL cells assessed as test to control ratio at 0.1 uM by whole cell voltage clamp electrophysiological analysis; type: cell-based
# [21] = test system: Mus musculus; assay: Antiepileptic activity in MES-induced seizure male ICR mouse model assessed as protection against tonic hind limb extension at 20 mg/kg, ip measured after 30 mins relative to control; type: functional; conditions: 0.5 h
# [22] = test system: Mus musculus; assay: Antiepileptic activity in 6 Hz(32 mA)-induced seizure male C57BL mouse model assessed as protection against seizure at 10 mg/kg, ip administered for 30 mins by epilepsy test; type: functional; conditions: 0.5 h
# [23] = biological target: T1, Sodium channel protein type 2 subunit alpha; assay: Inhibition of human Nav1.2 expressed in HEK293 cells assessed as effect on steady state activation by measuring half activation potential at 20 uM (reference value: -37 mV); type: cell-based
# Target sequence in this assay (Q99250 whole entry, looked up): as the sequence (Q99250 whole entry, looked up) above
# [24] = Neurotoxicity in male ICR mouse assessed as motor impairment at 300 mg/kg, ip administered for 30 mins by rotarod test relative to control; type: toxicity, organism-based; conditions: in vivo, 0.5 h
# [25] = test system: Mus musculus; assay: Antiepileptic activity in 6 Hz(32 mA)-induced seizure male C57BL mouse model administered intraperitoneally for 30 mins by epilepsy test; type: functional; conditions: 0.5 h, route ip
# [26] = biological target: T2, Sodium channel protein type 5 subunit alpha; assay: Inhibition of human Nav1.5 expressed in CHL cells assessed as test to control ratio at 1 uM by whole cell voltage clamp electrophysiological analysis; type: cell-based
# [27] = biological target: Sodium channel protein type 8 subunit alpha (Homo sapiens) (UniProt Q9UQD0); assay: Inhibition of human Nav1.6 expressed in CHO cells assessed as test to control ratio at 0.1 uM by whole cell voltage clamp electrophysiological analysis; type: cell-based
# [28] = biological target: T1, Sodium channel protein type 2 subunit alpha; assay: Inhibition of Nav1.2 (unknown origin) at 100 uM relative to control
# [29] = test system: Mus musculus; assay: Antiepileptic activity in MES-induced seizure male ICR mouse model assessed as protection against tonic hind limb extension at 300 mg/kg, ip measured after 30 mins relative to control; type: functional; conditions: 0.5 h
# [30] = test system: Mus musculus; assay: Antiepileptic activity in 6 Hz(32 mA)-induced seizure male C57BL mouse model assessed as protection against seizure at 200 mg/kg, ip administered for 30 mins by epilepsy test; type: functional; conditions: 0.5 h
smiles,measurement,setting,value
CCCc1ccc(S(=O)(=O)Nc2nc(-c3cccc(OC)c3)cc(N3CCCc4ccccc4C3)n2)cc1,T/C,[1],0.86
same,T/C,[2],0.12
same,inhibition,[3],92%
same,T/C,[4],0.08
Nc1nc(-c2ccc3c(c2)CCO3)cc(N2CCCc3ccccc3C2)n1,T/C,[2],0.82
same,T/C,[4],0.07
Cc1cccc(C)c1OCCCNCc1cc(C(C)(C)C)c(O)c(C(C)(C)C)c1,pIC50,[5],6.74
COc1cccc(-c2cc(N3CCCc4ccc(F)cc4C3)nc(N)n2)c1,T/C,[1],0.84
same,T/C,[2],0.03
same,T/C,[4],0
Nc1nc(-c2ccc(F)cc2)cc(N2CCCc3ccccc3C2)n1,T/C,[1],0.9
same,T/C,[2],0.46
same,T/C,[4],0.18
COc1cccc(-c2cc(N3CC4CC(C3)c3ccccc34)nc(NS(=O)(=O)c3ccc(C)cc3)n2)c1,T/C,[2],0.71
same,T/C,[4],0.31
Nc1nc(-c2ccc(OC3CCCCO3)cc2)cc(N2CCCc3ccccc3C2)n1 (stereo not drawn),T/C,[2],0.76
same,T/C,[4],0.14
COc1cccc(-c2cc(N3CCc4ccccc4C3)nc(N)n2)c1,T/C,[1],0.68
same,T/C,[2],0.35
same,T/C,[4],0.13
COc1cccc(-c2cc(N3Cc4ccccc4C3)nc(N)n2)c1,T/C,[4],0.75
Nc1nc(-c2ccc3c(c2)OCCC3)cc(N2CCCc3ccccc3C2)n1,T/C,[2],0.72
same,T/C,[4],0.07
COc1cccc(-c2cc(N3CC4CC(C3)c3ccccc34)nc(NS(=O)(=O)c3cccc(C)c3)n2)c1,T/C,[2],0.68
same,T/C,[4],0.33
CC(C)Oc1ccc(-c2cc(N3CCCc4ccccc4C3)nc(N)n2)cc1,T/C,[2],0.87
same,T/C,[4],0.37
COc1cccc(-c2cc(N3CCc4nc(Cl)ccc4C3)nc(N)n2)c1,T/C,[1],0.89
same,T/C,[2],0.71
same,T/C,[4],0.18
COc1cccc(-c2cc(N3CCCc4c(cc(OC)cc4OC)C3)nc(N)n2)c1,T/C,[2],0.53
same,T/C,[4],0.14
COc1cccc(-c2cc(N3CCCc4ccc(C)cc4C3)nc(S(C)(=O)=O)n2)c1,T/C,[4],0.81
COc1cccc(-c2cc(N3CCC4(CCOCC4)C3)nc(N)n2)c1,T/C,[1],0.97
same,T/C,[2],0.94
same,T/C,[4],0.57
COc1cccc(-c2cc(N3CCc4nc(C)sc4C3)nc(N)n2)c1,T/C,[4],0.79
Nc1nc(-c2cccc3ccccc23)cc(N2CCCc3ccccc3C2)n1,T/C,[2],0.85
same,T/C,[4],0.08
COc1cccc(-c2cc(N3CCCc4cc(F)c(F)cc4C3)nc(N)n2)c1,T/C,[2],0.65
same,T/C,[4],0.43
COc1cccc(-c2cc(N3CCC(C)c4ccccc4C3)nc(N)n2)c1 (stereo not drawn),T/C,[1],0.95
same,T/C,[2],0.12
same,T/C,[4],0.11
COc1cccc(-c2cc(N3CCCc4ccccc4C3)nc(NS(=O)(=O)c3ccc(Cl)cc3)n2)c1,T/C,[4],0.65
COc1cccc(-c2cc(N3CCc4cc(OC)c(OC)cc4C3)nc(N)n2)c1,T/C,[1],0.67
same,T/C,[2],0.35
same,inhibition,[3],99%
same,T/C,[4],0.01
COc1cccc(-c2cc(N3CCCc4ccccc4C3)nc(NS(=O)(=O)c3ccc(F)cc3)n2)c1,T/C,[1],0.95
same,T/C,[2],0.95
same,T/C,[4],0.36
Nc1nc(-c2cccn2C2CCCCO2)cc(N2CCCc3ccccc3C2)n1 (stereo not drawn),T/C,[2],0.77
same,T/C,[4],0.19
COc1cccc(-c2nc(N)nc(N3CCCc4ccc(C)cc4C3)c2F)c1,T/C,[1],0.88
same,T/C,[2],0.19
same,T/C,[4],0.01
COc1cccc(-c2cc(N3CCCc4ccc(C)cc4C3)nc(C#N)n2)c1,T/C,[4],0.86
Cc1cccc(-c2cc(N3CCCc4ccccc4C3)nc(N)n2)c1,T/C,[1],0.85
same,T/C,[2],0.24
same,T/C,[4],0.03
Nc1cnc(-c2cc(Cl)cc(Cl)c2Cl)c(N)n1 [ELPETRIGINE],pIC50,[5],5.22
COc1cccc(-c2cc(N3CC4CC(C3)c3ccccc34)nc(NS(=O)(=O)c3ccc(C)cc3C)n2)c1,T/C,[2],0.84
same,T/C,[4],0.45
CN1C[C@H](CNC(=O)OCc2ccccc2)C[C@@H]2c3cccc4c3c(cn4C)C[C@H]21,T/C,[4],0.01
COc1cccc(-c2cc(N3CCCc4ccc(OCc5ccccc5)cc4C3)nc(N)n2)c1,T/C,[1],0.77
same,T/C,[2],0.11
same,T/C,[4],0.02
COc1cccc(-c2cc(N3CC4CC(C3)c3ccccc34)nc(N)n2)c1,pIC50,[6],4.67
same,T/C,[1],0.87
same,Activity,[7],75%
same,Activity,[8],63%
same,T/C,[2],0.4
same,pIC50,[9],6.20
same,V1/2,[10],-70 mV
same,Activity,[11],38%
same,T/C,[12],0.93
same,Activity,[13],38%
same,ED50,[14],15.8 mg/kg
same,TD50 at 0.5 h,[15],232 mg/kg
same,T/C,[16],0.33
same,T/C,[4],0.02
same,T/C,[17],0.1
same,Activity,[18],38%
same,Activity,[19],13%
same,T/C,[20],0.89
same,Activity,[21],50%
same,Activity,[22],13%
same,V1/2,[23],-32 mV
same,Activity,[24],88%
same,ED50,[25],38 mg/kg
same,T/C,[26],0.37
same,T/C,[27],0.51
COc1cccc(-c2cc(N3CCCc4ccc(C)cc4C3)nc(SC)n2)c1,T/C,[4],0.66
COc1cccc(-c2cc(N3CCCc4ccc(C)cc4C3)nc(-c3ccccc3)n2)c1,T/C,[4],0.91
Nc1nc(-c2cccc(OC(F)(F)F)c2)cc(N2CCCc3ccccc3C2)n1,T/C,[2],0.81
same,T/C,[4],0.07
COc1cccc(-c2cc(NCCc3ccc4c(c3)OCO4)nc(N)n2)c1,T/C,[1],0.86
same,T/C,[2],0.34
same,T/C,[4],0.05
O=C(CC(c1ccccc1)c1ccccc1)N1CCN(CCO)CC1,inhibition,[28],59.1%
COc1cccc(-c2cc(N3CCCc4ccc(C)cc4C3)nc(OC)n2)c1,T/C,[1],0.88
same,T/C,[2],0.43
same,T/C,[4],0.11
COc1cccc(-c2cc(N3CC4CC(C3)c3ccccc34)nc(NS(=O)(=O)c3ccc(F)cc3)n2)c1,T/C,[2],0.56
same,T/C,[4],0.28
COc1cccc(-c2cc(NCCc3ccc(OC)c(OC)c3)nc(N)n2)c1,T/C,[1],0.61
same,T/C,[2],0.35
same,T/C,[4],0.15
COc1cccc(-c2cc(N3CCCc4ccc(C)cc4C3)ncn2)c1,T/C,[1],0.8
same,T/C,[2],0.43
same,T/C,[4],0.13
CCCC(CCC)C(=O)O [VALPROIC ACID],Activity,[29],100%
same,Activity,[30],100%
COc1cccc(-c2cc(NCc3ccc(OC)c(OC)c3)nc(N)n2)c1,T/C,[1],0.7
same,T/C,[2],0.4
same,inhibition,[3],76%
same,T/C,[4],0.24
Nc1nc(-c2ccc(Oc3ccccc3)cc2)cc(N2CCCc3ccccc3C2)n1,T/C,[2],0.79
same,T/C,[4],0.46
COc1cccc(-c2cc(N3CCCc4cc(F)ccc4C3)nc(N)n2)c1,T/C,[1],0.39
same,T/C,[2],0.03
same,T/C,[4],0.04

# — ChEMBL document CHEMBL5584296, “Discovery of Novel Pyrimidine-Based Derivatives as Nav1.2 Inhibitors with Efficacy in Mouse Models of Epilepsy” (J Med Chem, 2024)
